US8816119B2, “Arylamide derivatives having antiandrogenic properties” (Medeia Therapeutics Ltd, priority 2010, dated 2014)
Changes are numbered by the printed parent chain.

How the values were obtained:
Assay type in all cases: cell-based
WT AR = molecular target: T1, WT AR (Homo sapiens, UniProt P10275); assay: Antagonism in WT AR, AR transactivation reporter gene assay in COS-1 cells, competitive setting with 50 nM testosterone; conditions: 18 h
T1 construct: expressed in transfected cells; host or cells: COS-1
T1 sequence (P10275 1-920): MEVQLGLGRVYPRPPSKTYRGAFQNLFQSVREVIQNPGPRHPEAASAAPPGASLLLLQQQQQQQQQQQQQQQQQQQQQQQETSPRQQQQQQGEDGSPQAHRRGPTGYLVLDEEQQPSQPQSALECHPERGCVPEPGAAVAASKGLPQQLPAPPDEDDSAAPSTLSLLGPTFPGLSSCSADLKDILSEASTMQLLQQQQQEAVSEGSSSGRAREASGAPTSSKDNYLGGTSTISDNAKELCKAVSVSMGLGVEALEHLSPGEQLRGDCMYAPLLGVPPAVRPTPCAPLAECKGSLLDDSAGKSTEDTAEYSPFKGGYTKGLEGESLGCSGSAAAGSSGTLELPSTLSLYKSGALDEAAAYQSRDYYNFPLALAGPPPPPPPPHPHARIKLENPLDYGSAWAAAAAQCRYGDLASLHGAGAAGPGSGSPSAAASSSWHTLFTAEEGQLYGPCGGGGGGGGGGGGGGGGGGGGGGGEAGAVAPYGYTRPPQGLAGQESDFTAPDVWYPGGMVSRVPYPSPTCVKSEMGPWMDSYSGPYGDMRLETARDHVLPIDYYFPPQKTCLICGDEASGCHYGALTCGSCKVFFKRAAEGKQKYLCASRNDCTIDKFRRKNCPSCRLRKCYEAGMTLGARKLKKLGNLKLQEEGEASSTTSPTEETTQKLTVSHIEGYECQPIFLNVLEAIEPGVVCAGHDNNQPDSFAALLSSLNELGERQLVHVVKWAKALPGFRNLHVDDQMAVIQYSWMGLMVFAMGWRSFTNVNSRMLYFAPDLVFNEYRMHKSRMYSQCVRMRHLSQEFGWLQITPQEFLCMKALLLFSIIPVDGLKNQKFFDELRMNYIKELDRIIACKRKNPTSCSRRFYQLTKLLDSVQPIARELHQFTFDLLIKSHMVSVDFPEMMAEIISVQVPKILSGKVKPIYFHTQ
Procedure: After 18 h, reporter gene activities (LUC and beta-galactosidase) were determined according to standard methods. The data are expressed as relative LUC activity (luciferase light units divided by beta-galactosidase A420nm to control for transfection efficiency) of a given compound in relation to the activity of a reference test item (=100%).
Antagonism in WT AR of compounds of the present invention was measured in AR transctivation assay in COS-1 cells in competitive setting using testosterone as a reference agonist as described above. […] Relative LUC activity representing AR-dependent transcription obtained by exposure to testosterone alone was set to 100%.

W741L AR = molecular target: T2, W741L AR (Homo sapiens, UniProt P10275, W742L); assay: Agonism in W741L mutant AR, AR transactivation assay in COS-1 cells, test compounds alone; conditions: 10 microM, compound alone
T2 construct: expressed in transfected cells; host or cells: COS-1
T2 sequence (P10275 1-920 W742L): T1 sequence (P10275 1-920) with W742L
Procedure: COS-1 (American Type Culture Collection) were cultured in DMEM supplemented with 10% FBS, penicillin (6.25 U/ml) and streptomycin (6.25 μg/ml) and seeded onto 48-well plates (50 000 cells/well) one day before transfection. Transfection media containing 2.5% charcoal-stripped FBS in DMEM was changed on cells 4 h prior to transfection. Cells were transfected with 50 ng of reporter gene plasmid (pPB-286/+32-LUC; PB, probasin promoter), 5 ng of AR expression plasmid (pSG5-hAR), and 5 ng of pCMVβ (an internal, beta-galactosidase control for transfection efficiency and cell growth) using TranslT-LT1 reagent (Mirus Bio Corporation) according to the manufacturer's instructions. […] After 18 h, reporter gene activities (LUC and beta-galactosidase) were determined according to standard methods. The data are expressed as relative LUC activity (luciferase light units divided by beta-galactosidase A420nm to control for transfection efficiency) of a given compound in relation to the activity of a reference test item (=100%).
Agonism in W741L AR of compounds of the present invention was measured in AR transactivation assay in COS-1 cells as described above except that AR expression vector harboring the W741L mutation was used instead of the WT AR. The transfected cells were exposed to test compounds alone.

T877A AR = molecular target: T3, T877A AR (Homo sapiens, UniProt P10275, T878A); assay: Agonism in T877A mutant AR, AR transactivation assay in COS-1 cells, test compounds alone; conditions: 10 microM, compound alone
T3 construct: expressed in transfected cells; host or cells: COS-1
T3 sequence (P10275 1-920 T878A): T1 sequence (P10275 1-920) with T878A
Description: The transfected cells were exposed to test compounds alone. Testosterone was used as reference agonist, and its' relative LUC activity representing AR-dependent transcription was set to 100%.

N#Cc1ccc(NC(=O)C(O)(CS(=O)(=O)Cc2ccc(F)cc2)c2cccc(C(F)(F)F)c2)cc1Cl (centres unmarked) [Example 40, N-(3-chloro-4-cyanophenyl)-3-{[(4-fluorophenyl)methane]sulfonyl}-2-hydroxy-2-[3-(trifluoromethyl)phenyl]propanamide]
Relative LUC activity (%) indicating residual androgen activity in relation to testosterone (100%) (WT AR; 1 microM compound): 22%
Relative LUC activity (%) indicating residual androgen activity in relation to testosterone (100%) (WT AR; 10 microM compound): 2%
Relative LUC activity (%) in W741L AR in relation to BIC (100%) (W741L AR): 2%
Relative LUC activity (%) in T877A AR in relation to testosterone (100%) (T877A AR): 1%

N#Cc1ccc(NC(=O)C(O)(CS(=O)(=O)c2ccc(Cl)cc2)c2ccc(Cl)cc2)cc1Cl (centres unmarked) [Example 18, N-(3-chloro-4-cyanophenyl)-3-[(4-chlorobenzene)sulfonyl]-2-(4-chlorophenyl)-2-hydroxypropanamide]
Relative LUC activity (%) indicating residual androgen activity in relation to testosterone (100%) (WT AR; 1 microM compound): 7%
Relative LUC activity (%) indicating residual androgen activity in relation to testosterone (100%) (WT AR; 10 microM compound): 1%
Relative LUC activity (%) in W741L AR in relation to BIC (100%) (W741L AR): 27%
Relative LUC activity (%) in T877A AR in relation to testosterone (100%) (T877A AR): 6%

COc1ccc(C(O)(CS(=O)(=O)Cc2ccc(F)cc2)C(=O)Nc2ccc(C#N)c(Cl)c2)cc1F (centres unmarked) [Example 32, N-(3-chloro-4-cyanophenyl)-2-(3-fluoro-4-methoxyphenyl)-3-{[(4-fluorophenyl)methane]sulfonyl}-2-hydroxypropanamide]
Relative LUC activity (%) indicating residual androgen activity in relation to testosterone (100%) (WT AR; 1 microM compound): 24%
Relative LUC activity (%) indicating residual androgen activity in relation to testosterone (100%) (WT AR; 10 microM compound): 2%
Relative LUC activity (%) in W741L AR in relation to BIC (100%) (W741L AR): 3%
Relative LUC activity (%) in T877A AR in relation to testosterone (100%) (T877A AR): 2%

N#Cc1ccc(NC(=O)C(O)(CS(=O)(=O)c2ccc(F)cc2)c2ccc(C(F)(F)F)cc2)cc1C(F)(F)F (centres unmarked) [Example 21, N-(4-cyano-3-(trifluoromethyl)phenyl)-3-[(4-fluorobenzene)sulfonyl]-2-hydroxy-2-[4-(trifluoromethyl)phenyl]propanamide]
Relative LUC activity (%) indicating residual androgen activity in relation to testosterone (100%) (WT AR; 1 microM compound): 24%
Relative LUC activity (%) indicating residual androgen activity in relation to testosterone (100%) (WT AR; 10 microM compound): 1%
Relative LUC activity (%) in W741L AR in relation to BIC (100%) (W741L AR): 3%
Relative LUC activity (%) in T877A AR in relation to testosterone (100%) (T877A AR): 4%

CCS(=O)(=O)CC(O)(C(=O)Nc1ccc(C#N)c(Cl)c1)c1ccc(OC)c(F)c1 (centres unmarked) [Example 25, N-(3-chloro-4-cyanophenyl)-2-((3-fluoro-4-methoxy)phenyl)-3-(ethanesulfonyl)-2-hydroxypropanamide]
Relative LUC activity (%) indicating residual androgen activity in relation to testosterone (100%) (WT AR; 1 microM compound): 22%
Relative LUC activity (%) indicating residual androgen activity in relation to testosterone (100%) (WT AR; 10 microM compound): 6%
Relative LUC activity (%) in W741L AR in relation to BIC (100%) (W741L AR): 9%
Relative LUC activity (%) in T877A AR in relation to testosterone (100%) (T877A AR): 9%

N#Cc1ccc(NC(=O)C(O)(CS(=O)(=O)c2ccc(F)cc2)c2ccc(C(F)(F)F)cc2)cc1Cl (centres unmarked) [Example 4, N-(3-chloro-4-cyanophenyl)-3-[(4-fluorobenzene)sulfonyl]-2-hydroxy-2-[4-(trifluoromethyl)phenyl]propanamide]
Relative LUC activity (%) indicating residual androgen activity in relation to testosterone (100%) (WT AR; 1 microM compound): 21%
Relative LUC activity (%) indicating residual androgen activity in relation to testosterone (100%) (WT AR; 10 microM compound): 1%
Relative LUC activity (%) in W741L AR in relation to BIC (100%) (W741L AR): 8%
Relative LUC activity (%) in T877A AR in relation to testosterone (100%) (T877A AR): 1%

N#Cc1ccc(NC(=O)C(O)(CS(=O)(=O)c2ccc(F)c(F)c2)c2ccc(C(F)(F)F)cc2)cc1Cl (centres unmarked) [Example 10, N-(3-chloro-4-cyanophenyl)-3-[(3,4-difluorobenzene)sulfonyl]-2-hydroxy-2-[4-(trifluoromethyl)phenyl]propanamide]
Relative LUC activity (%) indicating residual androgen activity in relation to testosterone (100%) (WT AR; 1 microM compound): 23%
Relative LUC activity (%) indicating residual androgen activity in relation to testosterone (100%) (WT AR; 10 microM compound): 6%
Relative LUC activity (%) in W741L AR in relation to BIC (100%) (W741L AR): 3%
Relative LUC activity (%) in T877A AR in relation to testosterone (100%) (T877A AR): 1%

N#Cc1ccc(S(=O)(=O)CC(O)(C(=O)Nc2ccc([N+](=O)[O-])c(Cl)c2)c2ccc(C(F)(F)F)cc2)cc1F (centres unmarked) [Example 19, N-(3-chloro-4-nitrophenyl)-3-[(4-cyano,3-fluorobenzene)sulfonyl]-2-hydroxy-2-[4-(trifluoromethyl)phenyl]propanamide]
Relative LUC activity (%) indicating residual androgen activity in relation to testosterone (100%) (WT AR; 1 microM compound): 11%
Relative LUC activity (%) indicating residual androgen activity in relation to testosterone (100%) (WT AR; 10 microM compound): 1%
Relative LUC activity (%) in W741L AR in relation to BIC (100%) (W741L AR): 9%
Relative LUC activity (%) in T877A AR in relation to testosterone (100%) (T877A AR): 2%
